Columns and labels:
[1] = system: Malassezia furfur (ATCC 14521); assay: Kill Rate Test (KRT) in mDixon broth; format: cell-based
Protocol: Experiments were conducted to investigate the efficacy of the composition of the present invention to inhibit the survival, growth, and proliferation of microorganisms in topical compositions. The test microorganism was Malassezia furfur. The Kill Rate Test (KRT) results are indicative of anti-fungal efficacy. Generally, the greater the inhibition of fungal growth in this test, the better the anti-fungal efficacy of the compound(s) tested. A flask containing mDixon broth medium (see Gueho, et al. Antoinie Leeuwenhoek (1996), no. 69, 337–55, which description is incorporated by reference herein) was inoculated with Malassezia furfur. Specific concentrations of active(s) were then added to the flask Samples were then withdrawn from the flask at specified time points, diluted in sterile water, and spread across the surface of a mDixon agar plate. […] The lower the CFU/ml count, the better activity the active(s) have against M. furfur. […] Experimental Procedure • 1. […] For Mg^2+, Ag^+, Mn ^2+, Bi^3+, and Na^+ Step 8 was repeated at the 24 and 48 hour time points.

[2] = system: Malassezia furfur (ATCC 14521); assay: Minimum Inhibitory Concentration (MIC) in mDixon agar; format: cell-based; settings: for MIC (ppm of metal ion) Alone: M. furfur, 5 days 30°; for MIC (ppm of metal ion) +0.5 ppm ZPT: metal ion in combination with 0.5 ppm ZPT (sub-MIC); for MIC (ppm of metal ion) +2 ppm ZPT: metal ion in combination with 2 ppm ZPT (sub-MIC); for MIC (ppm of metal ion) +4 ppm ZPT: metal ion in combination with 4 ppm ZPT (sub-MIC)
[3] = Table 2(a), 0.05% metal salt (with 10 ppm ZPT where labelled)
[4] = Table 2(a), 0.5% metal salt (with 10 ppm ZPT where labelled)
[5] = Table 2(b), 0.05% metal salt (with 10 ppm ZPT where labelled)
[6] = Table 2(b), 0.5% metal salt (with 10 ppm ZPT where labelled)

Structure (SMILES): [O-]n1ccccc1=S.[O-]n1ccccc1=S.[Zn+2] [ZPT, zinc salt of 1-hydroxy-2-pyridinethione, reference compound]
- Plate Area Colonized, 0 Hours ([1]; Table 2(a), 10 ppm): 3.97E+06 mm2
- Plate Area Colonized, 24 Hours ([1]; Table 2(a), 10 ppm): 2.52E+05 mm2
- Plate Area Colonized, 48 Hours ([1]; Table 2(a), 10 ppm): 2.30E+03 mm2
- Plate Area Colonized, 0 Hours ([1]; Table 2(b), 10 ppm): 2.12E+07 mm2
- Plate Area Colonized, 4 Hours ([1]; Table 2(b), 10 ppm): 3.49E+07 mm2
- Plate Area Colonized, 24 Hours ([1]; Table 2(b), 10 ppm): 6.44E+06 mm2
- Plate Area Colonized, 48 Hours ([1]; Table 2(b), 10 ppm): 4.86E+05 mm2

Structure (SMILES): [Zn+2] [Zinc (2+)]
- MIC (ppm of metal ion) Alone [2]: 5000 ppm
- MIC (ppm of metal ion) +0.5 ppm ZPT [2]: 500 ppm
- MIC (ppm of metal ion) +2 ppm ZPT [2]: 50 ppm
- MIC (ppm of metal ion) +4 ppm ZPT [2]: 5 ppm

Structure (SMILES): O=S(=O)([O-])[O-].[Na+].[Na+] [Na2SO4]
- Plate Area Colonized, 0 Hours [1, 3]: 3.97E+06 mm2
- Plate Area Colonized, 24 Hours [1, 3]: 3.75E+07 mm2
- Plate Area Colonized, 48 Hours [1, 3]: 3.42E+06 mm2
- Plate Area Colonized, 0 Hours [1, 4]: 3.97E+06 mm2
- Plate Area Colonized, 24 Hours [1, 4]: 1.44E+07 mm2
- Plate Area Colonized, 48 Hours [1, 4]: 2.95E+06 mm2

Structure (SMILES): [Hg+2] [Mercury (2+)]
- MIC (ppm of metal ion) Alone [2]: 50 ppm
- MIC (ppm of metal ion) +4 ppm ZPT [2]: 5 ppm

Structure (SMILES): O=S(=O)([O-])[O-].[Mn+2] [MnSO4]
- Plate Area Colonized, 0 Hours [1, 3]: 3.97E+06 mm2
- Plate Area Colonized, 24 Hours [1, 3]: 1.97E+07 mm2
- Plate Area Colonized, 48 Hours [1, 3]: 5.91E+06 mm2
- Plate Area Colonized, 0 Hours [1, 4]: 3.97E+06 mm2
- Plate Area Colonized, 24 Hours [1, 4]: 1.16E+05 mm2
- Plate Area Colonized, 48 Hours [1, 4]: 2.35E+02 mm2

Structure (SMILES): [Cu+2] [Copper (2+)]
- MIC (ppm of metal ion) Alone [2]: 5000 ppm
- MIC (ppm of metal ion) +0.5 ppm ZPT [2]: 5000 ppm
- MIC (ppm of metal ion) +2 ppm ZPT [2]: <0.5 ppm
- MIC (ppm of metal ion) +4 ppm ZPT [2]: <0.005 ppm
- MIC (ppm of metal ion) +4 ppm ZPT ([2]; listed as copper ions): less than 0.005 ppm

Structure (SMILES): O=S(=O)([O-])[O-].[Zn+2] [ZnSO4]
- Plate Area Colonized, 0 Hours [1, 5]: 2.12E+07 mm2
- Plate Area Colonized, 4 Hours [1, 5]: 8.14E+07 mm2
- Plate Area Colonized, 24 Hours [1, 5]: 7.22E+07 mm2
- Plate Area Colonized, 48 Hours [1, 5]: 3.44E+08 mm2
- Plate Area Colonized, 0 Hours [1, 6]: 2.12E+07 mm2
- Plate Area Colonized, 4 Hours [1, 6]: 2.21E+07 mm2
- Plate Area Colonized, 24 Hours [1, 6]: 2.69E+06 mm2
- Plate Area Colonized, 48 Hours [1, 6]: 1.86E+05 mm2

Structure (SMILES): O=S(=O)([O-])[O-].[Mg+2] [MgSO4]
- Plate Area Colonized, 0 Hours [1, 3]: 3.97E+06 mm2
- Plate Area Colonized, 24 Hours [1, 3]: 4.35E+06 mm2
- Plate Area Colonized, 48 Hours [1, 3]: 9.68E+06 mm2
- Plate Area Colonized, 0 Hours [1, 4]: 3.97E+06 mm2
- Plate Area Colonized, 24 Hours [1, 4]: 1.81E+07 mm2
- Plate Area Colonized, 48 Hours [1, 4]: 9.50E+06 mm2

Structure (SMILES): [Cl][Bi]([Cl])[Cl] [BiCl3]
- Plate Area Colonized, 0 Hours [1, 3]: 3.97E+06 mm2
- Plate Area Colonized, 24 Hours [1, 3]: 1.96E+07 mm2
- Plate Area Colonized, 48 Hours [1, 3]: 3.03E+06 mm2
- Plate Area Colonized, 0 Hours [1, 4]: 3.97E+06 mm2
- Plate Area Colonized, 24 Hours [1, 4]: 1.11E+06 mm2
- Plate Area Colonized, 48 Hours [1, 4]: 3.42E+05 mm2

Structure (SMILES): O=S(=O)([O-])[O-].[Cu+2] [CuSO4]
- Plate Area Colonized, 0 Hours [1, 5]: 2.12E+07 mm2
- Plate Area Colonized, 4 Hours [1, 5]: 9.49E+07 mm2
- Plate Area Colonized, 24 Hours [1, 5]: 1.81E+08 mm2
- Plate Area Colonized, 48 Hours [1, 5]: 3.32E+08 mm2
- Plate Area Colonized, 0 Hours [1, 6]: 2.12E+07 mm2
- Plate Area Colonized, 4 Hours [1, 6]: 1.00E+00 mm2
- Plate Area Colonized, 24 Hours [1, 6]: 1.00E+00 mm2
- Plate Area Colonized, 48 Hours [1, 6]: 1.00E+00 mm2

Structure (SMILES): O=S(=O)([O-])[O-].[Ag+].[Ag+] [Ag2SO4]
- Plate Area Colonized, 0 Hours [1, 3]: 3.97E+06 mm2
- Plate Area Colonized, 24 Hours [1, 3]: 7.46E+05 mm2
- Plate Area Colonized, 48 Hours [1, 3]: 1.22E+05 mm2
- Plate Area Colonized, 0 Hours [1, 4]: 3.97E+06 mm2
- Plate Area Colonized, 24 Hours [1, 4]: 1.65E+06 mm2
- Plate Area Colonized, 48 Hours [1, 4]: 1.00E+00 mm2

Source: patent US7026308B1, “Topical anti-microbial compositions” (The Procter & Gamble Company, priority 1999, dated 2006)
